Experimental data from patent US6656911B2, “Serine protease inhibitors” (Cortech, Inc., priority 1994, dated 2003).
pKi: −log10 of the molar value. Like-named read-outs stand apart in the source and are kept apart here.

What was measured:
[1] = molecular target: T1, human neutrophil elastase (HNE) (Homo sapiens, UniProt P08246); test: HNE Ki of CE compounds, tested as described in WO 96/16080; format: biochemical; conditions: for pKi: read-out: HNE Ki
T1 sequence (P08246 30-267): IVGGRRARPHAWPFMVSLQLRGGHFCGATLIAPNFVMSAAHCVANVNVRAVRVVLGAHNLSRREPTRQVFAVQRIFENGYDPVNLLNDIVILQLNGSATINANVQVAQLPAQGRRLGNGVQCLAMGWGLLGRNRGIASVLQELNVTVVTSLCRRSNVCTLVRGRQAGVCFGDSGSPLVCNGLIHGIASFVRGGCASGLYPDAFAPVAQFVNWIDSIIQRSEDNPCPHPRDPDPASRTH

[2] = test system: polymorphoneucleocyte (PMN); test: Extracellular Matrix (ECM) degradation assay; format: cell-based; conditions: PMN's stimulated with opsonized zymosan, 4 hr at 37° C.; for inhibition at 1 µM / ECM DATA % Inhibition 1 uM: 1 uM inhibitor; for inhibition at 5 µM / ECM DATA % Inhibition 5 uM: 5 uM inhibitor
Description: Forty-eight well plates on which extracellular matrix had been established were supplied to Cortech by Dr. Simon's group at the State University of New York at Stony Brook. Briefly, the plates were prepared as follows: R22 rat heart smooth muscle cells were seeded into wells at 2.5×10^4 cells/cm. The cells were fed every 4 days with Eagle's Minimal Essential Media supplemented with fetal bovine serum, tryptose phosphate broth, cefotaxime and streptomycin. At confluence, daily supplements of 50 ug/ml ascorbic acid were added for 8 to 10 days during the synthesis of the ECM layer. [^35S]sulfate and [^3H]proline were also added to the culture media to incorporate radiolabel into the matrix. Cells were later lysed with 25 mM NH4OH. Plates were washed three times with water and once with phosphate-buffered saline containing 0.02% NaN3. Plates were stored at 4° C. until use.
Matrix degradation assays were performed as follows: 0.40 ml of Hanks balance salt solution (HBSS) containing 1 or 5 uM test inhibitor (final concentration; diluted from DMSO stock solution; <2% DMSO final concentration) was added to the wells. After 30 minutes, 50 ul of a polymorphoneucleocyte (PMN) suspension was added resulting in 5×10^5 cells/well. PMN's were stimulated with opsonized zymosan. Zymosan particles were washed and suspended in 0.5 ml human serum for 1 hr at 37° C., vortexing every 15 min. The particles were then washed three times with HBSS and added to wells at a ratio of 10 particles/PMN in a volume of 50 ul. After a 4 hr incubation at 37° C., a 100 ul aliquot of the supernatant was withdrawn for scintillation counting. Following removal of the remaining supernatant, the residual ECM was solubilized with 0.5 ml 2M NaOH. The amount of tritium in this solubilized ECM was accessed by scintillation. ECM degradation data are expressed as (soluble counts released/total ECM counts)—(basal counts released without PMN's/total ECM counts).

[3] = Blood level screening after oral dose; format: in vivo, Sprague-Dawley rats; conditions: male, Sprague-Dawley, plasma, rat, oral gavage 10 mg/kg; for concentration at 1 h: read-out: Plasma Levels (μM) 1 hr; for concentration at 3 h: read-out: Plasma Levels (μM) 3 hr; for concentration at 6 h: read-out: Plasma Levels (μM) 6 hr
Description: The inhibitors were dissolved or suspended in polyethylene glycol (PEG), PEG-400 or PEG:H2O:EtOH at a concentration of 10 mg/ml. Unfasted male Sprague-Dawley rats were given an oral dose of this solution by gavage. Rats received 10 mg inhibitor/kg body weight in a volume of 1 ml/kg. After 1,3 or 6 hr., the rats were killed with an overdose of urethane (2.5 g/kg; i.p.) and the blood collected in a heparinized tube via cardiac puncture. Red blood cells were separated from the plasma by centrifugation.
Depending on the inhibitor, one of four organics (ethyl acetate, toluene, isopropyl ether or methyl t-butyl ether) was used to extract the compound from the plasma. Inhibitor concentrations were measured by HPLC or LC/MS analysis.

| Molecule | pKi [1] | inhibition at 1 µM [2] | inhibition at 5 µM [2] | concentration at 1 h [3] | concentration at 3 h [3] | concentration at 6 h [3] | Ki ([1]; HNE Ki (nM)) | ECM DATA % Inhibition 1 uM [2] | ECM DATA % Inhibition 5 uM [2] |
| --- | --- | --- | --- | --- | --- | --- | --- | --- | --- |
| Cc1cccc(Cc2nnc(C(=O)C(NC(=O)CN3C(=O)C(c4ccccc4)N(C)C3=O)C(C)C)o2)c1 [CE2179, 5-(R,S)-Phenyl-1-methyl-2,4-imidazolidinedione-N-[1-(2-[5-(3-methylbenzyl)-1,3,4-oxadiazolyl]carbonyl)-2-(S)-methylpropyl]acetamide] | 8.12 | 48.8% | 45.9% | 1.23 µM | 0.599 µM | – | – | – | – |
| CC(C)[C@H](NC(=O)[C@@H]1CCCN1C(=O)[C@@H](NC(=O)OCc1ccccc1)C(C)C)C(=O)c1noc(Cc2ccc3c(c2)OCO3)n1 [CE2178, (Benzyloxycarbonyl)-L-valyl-N-[1-(3-[5-(3,4-methylenedioxybenzyl)-1,2,4-oxadiazolyl]carbonyl)-2-(S)-methylpropyl]-L-prolinamide] | 9.54 | – | 34% | – | 0.185 µM | – | – | – | – |
| Cc1cccc(Cc2nnc(C(=O)[C@@H](NC(=O)[C@@H]3CCCN3C(=O)[C@@H](NC(=O)OCc3ccccc3)C(C)C)C(C)C)o2)c1 [CE2072, (Benzyloxycarbonyl)-L-valyl-N-[1-(2-[5-(3-methylbenzyl)-1,3,4-oxadiazolyl]carbonyl)-2-(S)-methylpropyl]-L-prolinamide] | – | 64.8% | 74.5% | 0.277 µM | 0.115 µM | 0.061 µM | – | – | – |
| Cc1cccc(Cc2nnc(C(=O)[C@@H](NC(=O)CN3C(=O)CN=C(c4ccccn4)c4ccccc43)C(C)C)o2)c1 [CE2217, 2-Oxo-5-(2-pyridyl)-1,4-benzodiazepine-N-[1-(2-[5-(3-methylbenzyl)-1,3,4-oxadiazolyl]carbonyl)-2-(S)-methylpropyl]acetamide] | – | 28.1% | 41.2% | 1.99 µM | 0.521 µM | – | 5.5 nM | – | – |
| Cc1cccc(Cc2nnc(C(=O)[C@@H](NC(=O)Cn3c(-c4ccc(F)cc4)ncc(N)c3=O)C(C)C)o2)c1 [CE2101, 2-[5-Amino-6-oxo-2-(4-fluorophenyl)-1,6-dihydro-1-pyrimidinyl]-N-[1-(2-[5(3-methylbenzyl)-1,3,4-oxadiazolyl]carbonyl)-2-(S)-methylpropyl]acetamide] | – | 44.6% | 51.2% | 1.24 µM | 1.37 µM | 1.04 µM | – | – | – |
| Cc1cccc(Cc2nnc(C(=O)[C@@H](NC(=O)CN3C(=O)N[C@@H](Cc4ccccc4)C3=O)C(C)C)o2)c1 [CE2154, 5-(S)-Benzyl-2,4-imidazolidinedione-N-[1-(2-[5-(3-methylbenzyl)-1,3,4-oxadiazolyl]carbonyl)-2-(S)-methylpropyl]acetamide] | 8.00 | 54.6% | 65.4% | – | – | – | – | – | – |
| CCCCc1nnc(C(=O)C(NC(=O)CN2C(=O)C(N)N=C(c3ccccn3)c3ccccc32)C(C)C)o1 [CE2218, (R,S)-3-Amino-2-oxo-5-(2-pyridyl)-1,4-benzodiazepine-N-[1-(2-[5-(3-methylpropyl)-1,3,4-oxadiazolyl]carbonyl)-2-(R,S)-methylpropyl]acetamide] | 8.80 | – | – | – | – | – | – | 30.5% | 33.15% |
| 2-Oxo-5-methyl-1,4-(2-phenyl-1-thiophenodiazepine)-N-[1-(2-[5-(3-methylbenzyl)-1,3,4-oxadiazolyl]carbonyl)-2-(S)-methylpropyl]acetamide [CE2245] | 7.62 | – | – | – | – | – | – | 34.7% | 39.3% |
| Cc1cccc(Cc2nnc(C(=O)C(NC(=O)CN3C(=O)[C@@H](Cc4ccccc4)N(CCN4CCOCC4)C3=O)C(C)C)o2)c1 (stereo partly drawn) [CE2173, 1-(3-Morpholinoethyl)-5-(R)-benzyl-2,4-imidazolidinedione-N-[1-(2-[5-(3-methylbenzyl)-1,3,4-oxadiazolyl]carbonyl)-2-(R,S)-methylpropyl]acetamide] | 8.19 | – | – | – | – | – | – | 35.9% | 47.1% |
